Experimental findings from ChEMBL document CHEMBL1649420, “Identifying chelators for metalloprotein inhibitors using a fragment-based approach” (J Med Chem, 2011) are described below.

SMILES strings stand for the structures.

Assay [1] has as its target T1, Polyunsaturated fatty acid 5-lipoxygenase (Homo sapiens) (UniProt P09917).
T1 sequence (whole entry): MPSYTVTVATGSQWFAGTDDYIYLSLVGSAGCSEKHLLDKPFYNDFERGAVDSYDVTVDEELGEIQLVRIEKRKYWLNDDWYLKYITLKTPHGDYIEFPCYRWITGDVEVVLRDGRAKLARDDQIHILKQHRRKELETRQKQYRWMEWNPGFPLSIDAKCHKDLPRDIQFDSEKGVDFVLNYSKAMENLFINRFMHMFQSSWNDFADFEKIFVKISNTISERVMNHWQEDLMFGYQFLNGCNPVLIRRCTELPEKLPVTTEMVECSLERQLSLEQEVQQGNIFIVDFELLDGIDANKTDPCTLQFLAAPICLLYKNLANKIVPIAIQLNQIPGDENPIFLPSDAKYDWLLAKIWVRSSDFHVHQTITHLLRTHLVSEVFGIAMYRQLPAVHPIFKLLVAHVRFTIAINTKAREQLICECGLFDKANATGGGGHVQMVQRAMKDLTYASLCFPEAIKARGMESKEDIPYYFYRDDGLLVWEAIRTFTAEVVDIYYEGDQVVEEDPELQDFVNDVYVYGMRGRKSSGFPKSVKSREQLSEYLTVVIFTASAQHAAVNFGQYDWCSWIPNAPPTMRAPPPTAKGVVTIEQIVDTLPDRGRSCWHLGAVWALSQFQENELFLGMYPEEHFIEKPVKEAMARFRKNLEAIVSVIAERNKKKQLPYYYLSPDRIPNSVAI
In words: Inhibition of human recombinant 5-lipoxygenase at 1 mM after 10 mins by fluorescence assay.

Assay [2] addresses T2, Interstitial collagenase (Homo sapiens) (UniProt P03956).
T2 sequence (whole entry): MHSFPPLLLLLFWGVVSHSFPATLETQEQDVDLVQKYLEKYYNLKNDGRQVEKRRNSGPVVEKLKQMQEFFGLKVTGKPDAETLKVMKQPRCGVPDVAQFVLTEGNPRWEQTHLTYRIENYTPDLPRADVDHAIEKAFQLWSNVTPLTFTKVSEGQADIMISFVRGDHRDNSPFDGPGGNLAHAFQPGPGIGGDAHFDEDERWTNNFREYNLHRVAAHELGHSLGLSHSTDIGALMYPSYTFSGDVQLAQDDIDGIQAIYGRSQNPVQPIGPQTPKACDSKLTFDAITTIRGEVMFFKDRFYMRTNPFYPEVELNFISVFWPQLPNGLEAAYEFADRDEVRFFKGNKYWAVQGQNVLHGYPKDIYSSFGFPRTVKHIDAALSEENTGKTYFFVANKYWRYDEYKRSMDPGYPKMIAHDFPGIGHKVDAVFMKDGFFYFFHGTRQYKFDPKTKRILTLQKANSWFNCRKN
Conditions: at 1 mM.

Assay [3] concerns the target 72 kDa type IV collagenase (Homo sapiens, UniProt P08253). Conditions: at 1 mM.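 Also: recombinant human enzyme, inhibition read after a 30 min incubation.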
The target of assay [4] is Stromelysin-1 (Homo sapiens) (UniProt P08254). As to conditions: at 1 mM.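 Also: recombinant enzyme, inhibition read after a 30 min incubation.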
Chain of Stromelysin-1 (Homo sapiens) (P08254 100-477 limits assumed): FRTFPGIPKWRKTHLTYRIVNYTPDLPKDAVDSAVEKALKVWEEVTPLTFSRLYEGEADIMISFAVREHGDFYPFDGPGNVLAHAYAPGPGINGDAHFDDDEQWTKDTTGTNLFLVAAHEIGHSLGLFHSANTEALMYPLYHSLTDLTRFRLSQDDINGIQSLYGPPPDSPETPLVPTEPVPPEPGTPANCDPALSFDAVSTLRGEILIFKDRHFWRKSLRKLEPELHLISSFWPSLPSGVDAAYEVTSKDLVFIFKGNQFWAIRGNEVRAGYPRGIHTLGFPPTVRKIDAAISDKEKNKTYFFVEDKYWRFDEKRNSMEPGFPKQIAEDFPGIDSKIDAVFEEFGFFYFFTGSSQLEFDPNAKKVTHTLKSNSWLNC
Assay [5] addresses Neutrophil collagenase (Homo sapiens) (UniProt P22894). Conditions: at 1 mM.
Assay [6] has as its target Matrix metalloproteinase-9 (Homo sapiens) (UniProt P14780). Conditions: at 1 mM.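 Also: recombinant human MMP9, activity read after 30 min.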
In assay [7] the target is T3, Nitric oxide synthase, inducible (Mus musculus) (UniProt P29477).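 Also: recombinant enzyme, activity read out colorimetrically after 40 min.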
T3 sequence (whole entry): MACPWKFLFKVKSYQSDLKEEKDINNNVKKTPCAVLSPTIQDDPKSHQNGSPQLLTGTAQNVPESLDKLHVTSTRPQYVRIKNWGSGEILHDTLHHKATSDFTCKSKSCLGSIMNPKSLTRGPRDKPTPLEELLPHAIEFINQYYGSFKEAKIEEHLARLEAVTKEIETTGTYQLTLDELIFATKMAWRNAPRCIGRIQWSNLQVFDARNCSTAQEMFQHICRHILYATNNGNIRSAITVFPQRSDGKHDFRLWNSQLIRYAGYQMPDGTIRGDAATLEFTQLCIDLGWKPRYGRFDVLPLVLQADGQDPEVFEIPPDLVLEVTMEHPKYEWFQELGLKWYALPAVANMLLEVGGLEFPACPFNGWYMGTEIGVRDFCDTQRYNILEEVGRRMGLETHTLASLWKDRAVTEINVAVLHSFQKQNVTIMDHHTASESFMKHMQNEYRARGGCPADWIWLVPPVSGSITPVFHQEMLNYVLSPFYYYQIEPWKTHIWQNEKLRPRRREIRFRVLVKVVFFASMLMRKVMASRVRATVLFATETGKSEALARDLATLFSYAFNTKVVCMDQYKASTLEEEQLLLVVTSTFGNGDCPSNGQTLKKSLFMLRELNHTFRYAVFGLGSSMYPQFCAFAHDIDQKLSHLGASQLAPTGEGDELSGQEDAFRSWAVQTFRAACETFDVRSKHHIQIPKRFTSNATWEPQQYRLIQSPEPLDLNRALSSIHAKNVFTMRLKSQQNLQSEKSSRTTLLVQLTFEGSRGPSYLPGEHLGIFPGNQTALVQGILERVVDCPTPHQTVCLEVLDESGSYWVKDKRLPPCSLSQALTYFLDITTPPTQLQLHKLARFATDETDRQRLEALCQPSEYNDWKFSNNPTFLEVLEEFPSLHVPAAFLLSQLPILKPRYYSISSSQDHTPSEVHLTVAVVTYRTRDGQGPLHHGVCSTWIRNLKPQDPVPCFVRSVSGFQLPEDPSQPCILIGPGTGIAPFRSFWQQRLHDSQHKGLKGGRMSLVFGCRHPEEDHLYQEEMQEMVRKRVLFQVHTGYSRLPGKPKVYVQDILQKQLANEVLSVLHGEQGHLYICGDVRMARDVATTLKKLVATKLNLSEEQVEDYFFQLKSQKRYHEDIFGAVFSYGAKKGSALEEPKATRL
As to conditions: at 1 mM.

Assay [8] deals with T4, Lethal factor (Bacillus anthracis) (UniProt P15917).
T4 sequence (whole entry): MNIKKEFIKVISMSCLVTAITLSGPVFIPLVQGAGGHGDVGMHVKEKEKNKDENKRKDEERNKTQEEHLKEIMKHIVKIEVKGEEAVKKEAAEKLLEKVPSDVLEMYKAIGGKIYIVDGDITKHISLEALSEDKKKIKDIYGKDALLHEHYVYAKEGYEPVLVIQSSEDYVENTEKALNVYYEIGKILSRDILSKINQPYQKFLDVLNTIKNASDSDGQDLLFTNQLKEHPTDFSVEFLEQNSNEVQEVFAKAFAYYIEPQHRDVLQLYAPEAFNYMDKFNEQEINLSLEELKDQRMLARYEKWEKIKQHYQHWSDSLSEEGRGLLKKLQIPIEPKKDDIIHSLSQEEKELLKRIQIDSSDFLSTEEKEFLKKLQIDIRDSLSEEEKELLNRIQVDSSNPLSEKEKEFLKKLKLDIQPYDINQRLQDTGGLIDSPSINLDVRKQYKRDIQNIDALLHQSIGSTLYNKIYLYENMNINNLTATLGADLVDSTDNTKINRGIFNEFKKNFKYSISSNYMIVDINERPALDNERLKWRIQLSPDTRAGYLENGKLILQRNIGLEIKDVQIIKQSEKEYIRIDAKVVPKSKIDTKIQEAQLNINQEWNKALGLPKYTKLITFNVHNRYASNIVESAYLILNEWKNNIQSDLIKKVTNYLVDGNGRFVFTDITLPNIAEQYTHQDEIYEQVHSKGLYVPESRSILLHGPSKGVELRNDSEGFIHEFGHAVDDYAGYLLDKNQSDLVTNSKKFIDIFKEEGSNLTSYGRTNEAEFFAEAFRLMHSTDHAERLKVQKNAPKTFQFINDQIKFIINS
Conditions: at 1 mM.

Assay [9] has as its target T5, Tyrosinase (Agaricus bisporus) (UniProt O42713).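 Also: inhibition measured at 10 min.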
T5 sequence (whole entry): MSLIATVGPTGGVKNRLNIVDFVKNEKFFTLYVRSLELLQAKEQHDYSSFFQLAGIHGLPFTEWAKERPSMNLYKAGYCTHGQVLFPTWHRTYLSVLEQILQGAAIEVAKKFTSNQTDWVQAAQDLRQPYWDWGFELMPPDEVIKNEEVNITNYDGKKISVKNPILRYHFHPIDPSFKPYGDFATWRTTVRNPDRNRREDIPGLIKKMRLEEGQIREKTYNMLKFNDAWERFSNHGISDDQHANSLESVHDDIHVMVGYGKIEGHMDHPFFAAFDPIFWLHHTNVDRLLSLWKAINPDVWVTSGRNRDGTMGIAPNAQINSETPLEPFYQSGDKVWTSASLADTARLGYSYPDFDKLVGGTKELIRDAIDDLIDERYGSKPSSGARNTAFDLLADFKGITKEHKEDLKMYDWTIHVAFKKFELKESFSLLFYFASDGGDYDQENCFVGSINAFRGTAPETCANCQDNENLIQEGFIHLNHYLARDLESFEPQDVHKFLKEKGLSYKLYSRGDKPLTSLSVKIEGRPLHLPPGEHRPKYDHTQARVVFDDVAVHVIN
As to conditions: at 1 mM.

Chain of Matrix metalloproteinase-9 (Homo sapiens) (P14780 whole entry): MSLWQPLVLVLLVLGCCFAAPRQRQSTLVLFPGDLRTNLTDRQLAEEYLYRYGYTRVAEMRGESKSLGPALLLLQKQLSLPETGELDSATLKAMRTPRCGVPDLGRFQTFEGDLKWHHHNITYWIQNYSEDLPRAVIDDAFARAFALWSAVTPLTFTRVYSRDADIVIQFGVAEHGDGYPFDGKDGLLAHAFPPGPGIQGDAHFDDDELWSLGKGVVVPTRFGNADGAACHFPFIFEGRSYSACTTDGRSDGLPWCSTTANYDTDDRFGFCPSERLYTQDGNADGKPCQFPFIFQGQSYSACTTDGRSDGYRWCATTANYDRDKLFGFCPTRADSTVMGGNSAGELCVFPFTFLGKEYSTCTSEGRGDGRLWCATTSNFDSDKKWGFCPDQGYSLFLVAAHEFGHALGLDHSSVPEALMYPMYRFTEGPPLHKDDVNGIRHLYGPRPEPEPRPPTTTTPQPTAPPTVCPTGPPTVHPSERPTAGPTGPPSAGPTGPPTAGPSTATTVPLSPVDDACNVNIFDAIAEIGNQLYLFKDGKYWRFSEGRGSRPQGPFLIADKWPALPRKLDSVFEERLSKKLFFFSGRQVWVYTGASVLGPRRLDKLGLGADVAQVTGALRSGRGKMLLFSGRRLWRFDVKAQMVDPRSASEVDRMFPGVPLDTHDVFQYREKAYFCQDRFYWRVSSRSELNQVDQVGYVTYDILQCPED
Chain of 72 kDa type IV collagenase (P08253 110-660 limits assumed): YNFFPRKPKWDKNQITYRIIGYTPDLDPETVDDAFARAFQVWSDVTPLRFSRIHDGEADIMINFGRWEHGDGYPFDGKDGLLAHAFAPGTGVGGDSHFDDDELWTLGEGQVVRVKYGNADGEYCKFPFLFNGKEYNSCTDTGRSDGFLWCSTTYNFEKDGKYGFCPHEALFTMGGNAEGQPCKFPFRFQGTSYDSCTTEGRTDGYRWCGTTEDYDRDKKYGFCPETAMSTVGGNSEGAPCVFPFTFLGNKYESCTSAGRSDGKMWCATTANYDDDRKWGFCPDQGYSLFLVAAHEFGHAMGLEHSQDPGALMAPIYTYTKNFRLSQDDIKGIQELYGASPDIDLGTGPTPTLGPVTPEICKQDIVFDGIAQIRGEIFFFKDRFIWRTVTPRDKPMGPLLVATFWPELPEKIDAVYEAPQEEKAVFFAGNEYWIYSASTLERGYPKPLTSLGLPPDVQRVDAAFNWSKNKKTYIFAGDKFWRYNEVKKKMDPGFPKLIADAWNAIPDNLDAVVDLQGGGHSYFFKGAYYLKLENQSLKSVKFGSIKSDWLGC
Chain of Neutrophil collagenase (Homo sapiens) (P22894 101-467 limits assumed): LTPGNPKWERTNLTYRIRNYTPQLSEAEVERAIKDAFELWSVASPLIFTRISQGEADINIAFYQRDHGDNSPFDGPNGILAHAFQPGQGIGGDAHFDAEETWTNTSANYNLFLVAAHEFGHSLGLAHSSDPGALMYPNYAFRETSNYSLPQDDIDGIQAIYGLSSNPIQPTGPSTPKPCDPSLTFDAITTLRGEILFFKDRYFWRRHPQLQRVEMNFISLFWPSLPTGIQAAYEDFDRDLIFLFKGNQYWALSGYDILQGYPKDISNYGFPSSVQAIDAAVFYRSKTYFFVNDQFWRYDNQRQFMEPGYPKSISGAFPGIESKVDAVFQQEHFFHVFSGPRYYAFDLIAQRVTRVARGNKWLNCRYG

A word on the inhibition: it is the relative decrease from the control value, in per cent. Turning to `CCc1c(O)c(=O)ccn1CC`, the inhibition in assay [1] turned out to be 83%; in assay [2], 25%; in [3], 17%; in [4], 9%; in assay [5] it was 31%; in assay [6] it was 15%. Further, in assay [7], the inhibition came to 8%.
In the case of `O=c1cc(CO)occ1O`, the inhibition stood at 84% in assay [1]; 33% in [8]; 59% in [2]; 52% in assay [3]; 62% in [4]; 51% in assay [5]. Further, the values for the inhibition in assay [6] and in [7] were 49% and -4%, respectively.
For the molecule `Nc1ccc2cccc(O)c2n1`, the inhibition in assay [1] was found to be 66%; in [8] it was 59%; in assay [2], 96%; in assay [3], 100%; in [4], 87%; in [5], 91%. Besides, the inhibition in assay [6] was 100%; in [7] it was 38%.
Consider `Oc1cccnc1O`, for which the inhibition in [1] was 90%; in assay [9] it was -9%; in [2] it was 8%; in assay [4] it was -7%; in assay [5] it was 7%; in [6], 21%. For the same molecule, the inhibition in assay [7] stood at 0%.
Take `OCc1ccnc(-c2cc(CO)ccn2)c1`: the inhibition stood at 41% in assay [1]; 9% in [8]; 72% in [2]; 77% in assay [3]; 96% in assay [4]; 100% in [5]. Moreover, the inhibition in [6] came to 58%; in [7], 21%.
On to `Cc1ccc2cccc(O)c2n1`, for which the inhibition in assay [1] amounted to 59%; in assay [8], 44%; in assay [2], 47%; in assay [3], 65%; in assay [4], 71%; in assay [5], 63%. In addition, the inhibition in assay [6] was found to be 34%; in assay [7], 7%.
For the molecule `Oc1ccccc1O`, the inhibition came to 89% in assay [1]; 47% in assay [8]; 25% in [2]; 10% in assay [3]; 1% in [4]; 31% in [5]. In addition, the inhibition in assay [6] was 10%; in assay [7] it was 28%.
For `COc1ccccc1O`, the inhibition was 60% in assay [1]; 13% in [8]; 8% in [2]; -5% in assay [3]; -4% in assay [4]; 4% in assay [5]. Also, the inhibition is -6% in assay [6] and 13% in [7].
Turning to `c1cnc2c(c1)ccc1cccnc12`, the inhibition in [1] was found to be 4%; in assay [8] it was 67%; in assay [2] it was 71%; in assay [3], 100%; in assay [4], 91%; in assay [5], 100%. In addition, the inhibition in [6] turned out to be 86%; in [7] it was 30%.
In the case of `CC(C)c1cccc(=O)c(O)c1`, the inhibition in assay [9] was 54%; in [8], 66%; in assay [2], 95%; in [3] it was 90%; in assay [4], 98%; in assay [5] it was 100%. Moreover, the inhibition in assay [6] turned out to be 99%; in assay [7] it was 18%.
On to `O=C(O)c1cccc(=O)n1O`, for which the inhibition in assay [9] amounted to 94%; in assay [8], 47%; in assay [2], 84%; in [3] it was 60%; in assay [4] it was 86%; in assay [5] it was 89%. In addition, the inhibition is 66% in [6] and -5% in assay [7].
As for `CCc1c(O)c(=O)ccn1C`, the inhibition came out at 78% in [1]; 4% in assay [8]; 34% in [2]; 32% in assay [3]; 20% in assay [4]; 34% in [5]. Besides, the inhibition in assay [6] was 13%; in [7] it was 1%.
